{
  "source": "patent US20090131391A1",
  "about": "“INHIBITOR FOR DIFFERENTIATION OF HEMATOPOIETIC PRECURSOR CELLS” (OOO \"MBF\", priority 2006, published 2009)",
  "key": {"[1]": {"system": "LLC (Lewis lung carcinoma)", "assay": "Lewis lung carcinoma growth and metastasis with Platidiam (cisplatin) treatment", "assay_type": "in vivo, C57B1/6 mice"}, "[2]": {"system": "polychromatophil mouse erythrocytes (line C57 B1)", "assay": "Micronuclei in peripheral polychromatophil erythrocytes after electromagnetic irradiation", "assay_type": "in vivo", "method": "Protective properties of 9-phenyl-symmetric-octahydroselenoxanthene against non-ionizing radiation were examined by studying formation of micronuclei in polychromatophil mouse erythrocytes (line C57 B1). Micronuclei of the interphase nucleus are acentric chromosome fragments. Animals were exposed to electromagnetic radiation in millimeter wavelength range, frequency 39.5 GHz, and wavelength 7.5 mm for 1 hour. Flux density was approximately 3 microW/cm^2, which is 300 fold less than levels posing danger of overheating due to field energy absorption to a biological object.\n5 mg/kg of 9-phenyl-symmetric-octahydroselenoxanthene was administered to group 1 (n=5) orally in 0.2 ml of oil 7 days prior to irradiation. Group 2 (n=5) received 0.2 ml of oil only and untreated mice were used as controls. Mice were sacrificed 1 day after irradiation and number of micronuclei was assayed in peripheral polychromatophil erythrocytes (150,000 cells per sample)."}, "[3]": {"system": "Lewis lung carcinoma (LLC)", "assay": "Lewis lung carcinoma growth index and lung metastases with localized irradiation", "assay_type": "in vivo, mice", "conditions": "for Average number of lung metastases: day 21, surviving animals", "method": "The number of lung metastases was assayed on day 21 in surviving animals.\nAs in the previous series, tumor cells were injected subcutaneously into right hind leg at 2.0×10^6 cells/mouse (total of 40 mice)."}, "[4]": {"system": "colony-forming cells in the spleen, CFC-S", "assay": "Exogenous spleen colony assay (CFC-S) after agent and gamma-irradiation of donor mice", "assay_type": "in vivo", "method": "Assay of effect of various doses of ionizing radiation on hematopoiesis. 950 female mice of two lines—(CBA×C 57 B 1/6) F1 and (DBA×C 57B1/6) F1—were used in this study. Radiation was administered using a radiation therapy machine “Luch-1” utilizing gamma-rays ^60Co at 0.9 Gy/min. 9-phenyl-symmetric-octahydroselenoxanthene was administered orally in doses 1.0, 5.0, 10 and 20 mg/kg in 0.2 ml of oil. Agent was administered 1, 3 or 7 days prior to radiation treatment of 1.5 Gy; bone marrow was then extracted from donor mice, and cell suspension was injected into lethally irradiated (8 Gy) recipient mice of the same line. Colony-forming activity was assayed by number of exogenous spleen colonies when mice were sacrificed on day 9.\n300 female mice of line (CBA×C57B1/6) F1 were used in the experiment. Radiation was administered using a radiation therapy machine “Luch-1” utilizing gamma-rays ^60Co at 0.9 Gy/min. 9-phenyl-symmetric-octahydroselenoxanthene was administered orally in doses 1.0, 5.0, 10 and 20 mg/kg in 0.2 ml of oil 7 days prior to radiation treatment at following doses: 1.5, 2.0, 3.0 and 5.0 Gy. Bone marrow was extracted 10-15 minutes after the treatment and the cell suspension was injected into lethally irradiated (8 Gy) recipient mice. Colony-forming activity was assayed by number of exogenous spleen colonies when mice were sacrificed on day 9."}, "CD34+ cells": {"system": "CD34+ cells", "assay": "Flow cytometry of CD34+ cells in bone marrow and peripheral blood", "assay_type": "in vivo, mouse", "method": "The effects of the proposed agent (9-phenyl-symmetric-octahydroselenoxanthene) on mouse hematopoiesis were assayed by flow cytometry. Relative number of CD34+ cells and the density of the antigen were assayed in peripheral blood cells (80,000 cells per sample) and bone marrow cells (40,000 cells per sample). As reported earlier, administration of the proposed agent has no effect on relative number of less differentiated stem cells (CD34+)."}, "[5]": {"conditions": "Inhibitor + localized irradiation"}, "[6]": {"conditions": "concurrent use with localized irradiation"}, "[7]": {"conditions": "Agent administered 1 day prior to analysis, no irradiation"}, "[8]": {"conditions": "Agent administered 7 days prior to analysis + irradiation, 1.5 Gy"}, "[9]": {"conditions": "Agent administered 7 days prior to analysis, no irradiation"}},
  "data": [
    {"compound": "N.N.[Cl][Pt][Cl]", "note": "[Platidiam (cisplatin), cisplatin]", "values": [
      {"measurement": "Avg number of lung metastases M ± m", "setting": "[1]; C57B1/6 mice with LLC", "result": "6.2 ± 0.7"},
      {"measurement": "Tumor mass, g M ± m", "setting": "[1]; C57B1/6 mice with LLC", "result": "4.5 ± 0.5", "unit": "g"},
      {"measurement": "Tumor volume, sm^3 M ± m", "setting": "[1]; C57B1/6 mice with LLC", "result": "4.6 ± 0.6", "unit": "sm^3"},
      {"measurement": "anti-tumor effect (tumor mass and lung metastases)", "setting": "[1]; C57B1/6 mice with LLC", "result": "slight but consistent anti-tumor effect"}
    ]},
    {"compound": "9-phenyl-symmetric-octahydroselenoxanthene", "values": [
      {"measurement": "effect on tumor growth and number of lung metastases", "setting": "[1]; administered 30 minutes prior to chemotherapy with Platidiam (cisplatin)", "result": "did not exhibit any significant effect"},
      {"measurement": "Frequency of micronuclei-containing polychromatophil erythrocytes × 10^3", "setting": "[2]; 5 mg/kg orally 7 days prior to electromagnetic irradiation 39.5 GHz, 1 hour, assayed 1 day after irradiation", "result": "6.0 ± 2.10 × 10^3"},
      {"measurement": "protection against non-ionizing radiation", "setting": "[2]; electromagnetic irradiation", "result": "confers protection"},
      {"measurement": "Growth index", "setting": "[3]; [5]", "result": "4.6 ± 0.8"},
      {"measurement": "Growth index", "setting": "[3]; Inhibitor + localized irradiation, 1 day", "result": 1},
      {"measurement": "Growth index", "setting": "[3]; Inhibitor + localized irradiation, 4 days", "result": "1.4 ± 0.1"},
      {"measurement": "Growth index", "setting": "[3]; Inhibitor + localized irradiation, 6 days", "result": "1.7 ± 0.2"},
      {"measurement": "Growth index", "setting": "[3]; Inhibitor + localized irradiation, 8 days", "result": "1.84 ± 0.3"},
      {"measurement": "Growth index", "setting": "[3]; Inhibitor + localized irradiation, 11 days", "result": "2.65 ± 0.6"},
      {"measurement": "Average number of lung metastases", "setting": "[3]; [5]", "result": "13.4 ± 1.8"},
      {"measurement": "Growth index", "setting": "[3]; Inhibitor alone", "result": "7.7 ± 1.7"},
      {"measurement": "Growth index", "setting": "[3]; Inhibitor alone, 1 day", "result": 1},
      {"measurement": "Growth index", "setting": "[3]; Inhibitor alone, 4 days", "result": "1.64 ± 0.1"},
      {"measurement": "Growth index", "setting": "[3]; Inhibitor alone, 6 days", "result": "3.3 ± 0.25"},
      {"measurement": "Growth index", "setting": "[3]; Inhibitor alone, 8 days", "result": "3.9 ± 0.7"},
      {"measurement": "Growth index", "setting": "[3]; Inhibitor alone, 11 days", "result": "5.3 ± 0.7"},
      {"measurement": "Average number of lung metastases", "setting": "[3]; Inhibitor alone", "result": "33.5 ± 2.5"},
      {"measurement": "growth indexes of agent alone versus agent + irradiation", "setting": "[3]; combination with irradiation", "result": "not significantly different"},
      {"measurement": "effect on metastasis", "setting": "[3]; [6]", "result": "does not significantly increase metastasis"},
      {"measurement": "protection of tumor cells from effects of radiation", "setting": "[3]; [6]", "result": "does not protect the tumor cells from effects of radiation"},
      {"measurement": "effect on tumor growth", "setting": "[3]; inhibitor alone vs control", "result": "does not affect tumor growth"},
      {"measurement": "influence on metastatic processes", "setting": "[3]; non-irradiated and irradiated tumor-bearing mice, day 21", "result": "does not influence metastatic processes significantly"},
      {"measurement": "cell survival compared with the untreated control", "setting": "[4]; 5.0 mg/kg 7 days prior, 1.5 Gy", "result": "not significantly different"},
      {"measurement": "Cell survival relative to the irradiated control", "setting": "[4]; 5.0 mg/kg 7 days prior, all radiation doses excluding 1.5 Gy (2.0, 3.0, 5.0 Gy)", "result": 2, "unit": "fold"},
      {"measurement": "effect on CFC-S number in donor mice", "setting": "[4]; 5.0 mg/kg of the agent alone at various time points prior to bone marrow extraction", "result": "no effect"},
      {"measurement": "Number of colonies formed per 10^5 of bone marrow cells, M ± m", "setting": "[4]; 5 mg/kg orally, 1 day prior to irradiation 1.5 Gy", "result": "6.4 ± 0.5 per 10^5 of bone marrow cells"},
      {"measurement": "Number of colonies formed per 10^5 of bone marrow cells, M ± m", "setting": "[4]; 5 mg/kg orally, 1 day prior, no irradiation", "result": "12.5 ± 0.6 per 10^5 of bone marrow cells"},
      {"measurement": "Number of colonies formed per 10^5 of bone marrow cells, M ± m", "setting": "[4]; 5 mg/kg orally, 3 days prior to irradiation 1.5 Gy", "result": "9.1 ± 0.5 per 10^5 of bone marrow cells"},
      {"measurement": "Number of colonies formed per 10^5 of bone marrow cells, M ± m", "setting": "[4]; 5 mg/kg orally, 3 days prior, no irradiation", "result": "10.7 ± 0.4 per 10^5 of bone marrow cells"},
      {"measurement": "Number of colonies formed per 10^5 of bone marrow cells, M ± m", "setting": "[4]; 5 mg/kg orally, 7 days prior to irradiation 1.5 Gy (Table 1)", "result": "12.7 ± 0.7 per 10^5 of bone marrow cells"},
      {"measurement": "Number of colonies formed per 10^5 of bone marrow cells, M ± m", "setting": "[4]; 5 mg/kg orally, 7 days prior, no irradiation", "result": "11.1 ± 0.7 per 10^5 of bone marrow cells"},
      {"measurement": "persistence of the CFC-S adaptive response", "setting": "[4]; 5.0 mg/kg, 1.5 Gy", "result": 7, "unit": "days"},
      {"measurement": "increase in CFC-S compared to the irradiated control", "setting": "[4]; 5.0 mg/kg, 1 day prior to 1.5 Gy (minimal effect)", "result": 2, "unit": "fold"},
      {"measurement": "decrease of the effects of radiation", "setting": "[4]; 5.0 mg/kg, 7 days prior to 1.5 Gy (maximal effect)", "result": 3, "unit": "fold"},
      {"measurement": "Number of colonies formed per 10^5 of bone marrow cells, M ± m", "setting": "[4]; 5 mg/kg, 7 days prior to radiation dose 1.5 Gy (Table 2)", "result": "9.2 ± 0.2 per 10^5 of bone marrow cells"},
      {"measurement": "Number of colonies formed per 10^5 of bone marrow cells, M ± m", "setting": "[4]; 5 mg/kg, 7 days prior to radiation dose 2.0 Gy", "result": "3.6 ± 0.3 per 10^5 of bone marrow cells"},
      {"measurement": "Number of colonies formed per 10^5 of bone marrow cells, M ± m", "setting": "[4]; 5 mg/kg, 7 days prior to radiation dose 3.0 Gy", "result": "2.1 ± 0.1 per 10^5 of bone marrow cells"},
      {"measurement": "Number of colonies formed per 10^5 of bone marrow cells, M ± m", "setting": "[4]; 5 mg/kg, 7 days prior to radiation dose 5.0 Gy", "result": "0.6 ± 0.06 per 10^5 of bone marrow cells"},
      {"measurement": "Total CD34+ cells in bone marrow, 10^7, Mean", "setting": "CD34+ cells; Agent administered 1 day prior to analysis + irradiation, 1.5 Gy", "result": "2.1 10^7"},
      {"measurement": "Total CD34+ cells in bone marrow, 10^7, Mean", "setting": "CD34+ cells; [7]", "result": "4.0 10^7"},
      {"measurement": "Total CD34+ cells per 1 ml of peripheral blood, 10^3, Mean", "setting": "CD34+ cells; [7]", "result": "6.8 10^3"},
      {"measurement": "Total CD34+ cells in bone marrow, 10^7, Mean", "setting": "CD34+ cells; [8]", "result": "1.0 10^7"},
      {"measurement": "Total CD34+ cells per 1 ml of peripheral blood, 10^3, Mean", "setting": "CD34+ cells; [8]", "result": "3.8 10^3"},
      {"measurement": "Total CD34+ cells in bone marrow, 10^7, Mean", "setting": "CD34+ cells; [9]", "result": "4.0 10^7"},
      {"measurement": "Total CD34+ cells per 1 ml of peripheral blood, 10^3, Mean", "setting": "CD34+ cells; [9]", "result": "8.0 10^3"},
      {"measurement": "number of more differentiated progenitors", "setting": "CD34+ cells; blood cells, after 7 days", "result": "decreases"},
      {"measurement": "portion of CD34+ cells on the blood", "setting": "CD34+ cells; blood cells, three experiments", "result": "does not change"},
      {"measurement": "density of CD34 antigen on the cell surface", "setting": "CD34+ cells; by day 7 after the agent administration, p<0.05", "result": "increases"},
      {"measurement": "effect on relative number of less differentiated stem cells (CD34+)", "setting": "CD34+ cells; flow cytometry", "result": "no effect"},
      {"measurement": "effect on differentiation of progenitor cells", "setting": "CD34+ cells; peripheral blood and bone marrow composition after irradiation", "result": "blocks differentiation of progenitor cells of the granulocyte/macrophage lineage"}
    ]}
  ]
}
